This note sets out measurements from patent US20260198497A1, “A BENZENE RING-SUBSTITUTED PYRIMIDINECARBOXYLIC ACID COMPOUND, PREPARATION METHOD THEREFOR, HERBICIDAL COMPOSITION AND APPLICATION THEREOF” (QINGDAO KINGAGROOT CHEMICAL COMPOUND CO., LTD., priority 2023, published 2026).

One series has as its system Lindernia procumbens. Briefly: Activity assay of compositions, post-emergence spray of stems and leaves. Type of series: in vivo. Conditions: for Control effect of B applied alone in a corresponding dose (%): 21 days. From the text:
(§1) The required active ingredient B was purchased from a reagent company or a technical material manufacturer or synthesized by a conventional method. The active ingredient A was Compound 74 in Table 1. The technical materials were all dissolved with acetone solvents and diluted with aqueous solution of 0.1% Tween® 80 emulsifier, which should be used immediately after dilution.
(§2) Weeds were cultivated by a pot culture method. […] Weed seeds with plump and uniform grains were selected, soaked in lukewarm water at 25° C. for 6 hours, and accelerated to germinate in a 28° C. biochemical incubator (in darkness). The weed seeds that had just germinated were evenly placed on the surface of the soil and then covered with 0.5-1 cm soil according to the sizes of seeds.
(§3) The weeds were cultured in a controllable sunlight greenhouse at 20-30° C., in natural light, and with relative humidity of 57%-72%. The soil was loam with an organic matter content of 1.63%, a pH value of 7.1, alkali-hydrolyzable nitrogen of 84.3 mg/kg, rapidly available phosphorus of 38.5 mg/kg, and rapidly available potassium of 82.1 mg/kg.
(§4) Each treatment was repeated 4 times for 3 pots. Each pot was seeded with 20 weed seeds.
(§5) The drugs were applied once in total in the experiment. When at the stage of 1.5-2 leaves, the weeds were thinned out to maintain 10 strains per pot. Thirty strains were kept in each treatment and then continued to be cultured until the Erigeron canadensis reached 10 cm tall and other weeds in their 3-4 leaf stage for further treatment.
(§6) The well-cultured test materials were evenly placed on a 0.5 m^2 platform and foliage-sprayed by the 3WP-2000-type walking spray tower at a dosage of […] and a spray pressure of 0.3 MPa. After all the drug solution was sprayed, the air valve was closed. And 30 seconds later, the door of the spray tower was opened, and the nutritional bowl was taken out. Next, the air valve was opened, and the spray tube was cleaned by spraying 50 ml of water. The test materials were transferred to and routinely cultured in a greenhouse after the treatment.
(§7) A method for investigating absolute numbers was employed. The whole seedlings of the survival weeds were cut along the soil surface with a blade, and the fresh weight of the weeds was weighed by an analytical balance. For dead weeds, the fresh weight thereof was considered zero.
(§8) The investigation was performed 21 days after the treatment for once in total.
(§9) The theoretical fresh weight inhibition rate of a mixed combination of each treatment was calculated by the Gowing method (E0=X+Y−X*Y/100). Then compared with the measured inhibition rate (E), the type of the combined action of the combination of the two on weeds was evaluated, which was a synergistic effect when E−E0>10; an antagonistic effect when E−E0<−10%; an additional effect when −10≤E−E0≤[…]. An optimal ratio was determined according to factors such as the actual control effects, characteristics of herbicides, balance of the formulation, etc. In the formula, X represents the fresh weight inhibition rate of the active ingredient A in a dosage of P; Y represents the fresh weight inhibition rate of the active ingredient B in a dosage of Q. The statistical results are shown in Table 5 below.

In a further series the test system is Euphorbia helioscopia. The series is described as above. It counts as in vivo. Conditions: A 3 g a.i./ha, fresh weight inhibition, 21 days after treatment, listed as A.
Description: as §1, §2, §3, §4, §5, §6, §7, §8, §9

The test system of series [1] is Veronica. The experiment in a line: Post-emergence test on weeds. The settings on record: 30 g a.i./ha, 3 weeks after application. Type of series: in vivo. The arrangement: key: 0 = no effect, 9 = completely dead (levels by growth control rate). The method, boiled down: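 Sow in pots, cover 0.5-2 cm soil, greenhouse; spray at 2-3 leaf (2 wk); acetone/Tween 80 formulation + methyl oleate 1.5 L/ha; 120/60/30/15 g a.i./ha, n=3; score 0-9 on fresh-wt control at 3 wk.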

In series [2] the test system is Veronica. Briefly: Activity assay of compositions, post-emergence spray of stems and leaves. The settings on record: A 3 g a.i./ha, fresh weight inhibition, 21 days after treatment. It counts as in vivo. As for the experimental part:
(§10) The required active ingredient B was purchased from a reagent company or a technical material manufacturer or synthesized by a conventional method. […] The technical materials were all dissolved with acetone solvents and diluted with aqueous solution of 0.1% Tween® 80 emulsifier, which should be used immediately after dilution.
as §2, §4, §5, §6, §7, §8
The theoretical fresh weight inhibition rate of a mixed combination of each treatment was calculated by the Gowing method (E0=X+Y−X*Y/100). […] An optimal ratio was determined according to factors such as the actual control effects, characteristics of herbicides, balance of the formulation, etc. In the formula, X represents the fresh weight inhibition rate of the active ingredient A in a dosage of P; Y represents the fresh weight inhibition rate of the active ingredient B in a dosage of Q. The statistical results are shown in Table 5 below.

In the next series the test system is Paddy rice. The experiment in a line: Post-emergence test, crop safety. Conditions: in vivo, 3 weeks. The text has this: (§11) The criteria for activity levels of plant damage (i.e., growth control rate) are as follows: • Level 9: completely dead; • Level 8: growth control rate is greater than or equal to 90% and less than 100%; • Level 7: growth control rate is greater than or equal to 80% and less than 90%; • Level 6: growth control rate is greater than or equal to 70% and less than 80%; • Level 5: growth control rate is greater than or equal to 50% and less than 70%; • Level 4: growth control rate is greater than or equal to 30% and less than 50%; • Level 3: growth control rate is greater than or equal to 20% and less than 30%; • Level 2: growth control rate is greater than or equal to 10% and less than 20%; • Level 1: growth control rate is less than 10%; • Level 0: no effect.
(§12) The above growth control rates are fresh weight control rates.
(§13) Monocotyledonous and dicotyledonous weed seeds (Descurainia sophia, Capsella bursa-pastoris, Abutilon theophrasti, Galium spurium, Stellaria media, Lithospermum arvense, Rorippa indica, Alopecurus aequalis, Alopecurus japonicus, Eleusine indica, Beckmannia syzigachne, Sclerochloa dura, Erigeron canadensis, Phleum paniculatum, Veronica, Bromus japonicus, Aegilops tauschii, Phalaris arundinacea, Amaranthus retroflexus, Chenopodium, Commelina communis, Cichorium endivia, Convolvulus arvensis, Cirsium arvense, Solanum nigrum, Acalypha australis, Digitaria sanguinalis, Echinochloa crusgalli, Setaria viridis, Setaria pumila, Leptochloa chinensis, Monochoria vaginalis, Sagittaria trifolia, Schoenoplectiella juncoides, Cyperus rotundus, Cyperus iria, Cyperus difformis, Fimbristylis, Portulaca oleracea, Xanthium sibiricum, Ipomoea nil, Eschenbachia japonica, etc.) and major crop seeds (wheat, maize, paddy rice, soybean, cotton, oilseed rape, millet, sorghum, potato, sesame, castor plant, Chinese cabbage, radish, etc.) were placed in plastic pots filled with soil and then covered with 0.5-2 cm of soil to allow them to grow in a favorable greenhouse environment. Two weeks after sowing, the test plants were treated at the stage of 2-3 leaves. The test compounds of the present invention were individually dissolved with acetone, then added with Tween® 80, with 1.5 L/ha of methyl oleate emulsifiable concentrate as a synergist, diluted into solution of a certain concentration using a certain amount of water, and sprayed to plants using a spray tower. After drug application, the experimental results on weeds were collected after 3 weeks of cultivation in a greenhouse. The compounds were applied at 120, 60, 30, and 15 g a.i./ha in triplicate, and the results were averaged.

The subject of a further series is Radish. Briefly: Post-emergence test, crop safety. Conditions: in vivo, 3 weeks.
Description: as §11, §12, §13

The test system of the next series is Chinese cabbage. The experiment in a line: Post-emergence test, crop safety. Conditions: in vivo, 3 weeks.
Description: as §11, §12, §13

Another series has as its system Oilseed rape. Briefly: Post-emergence test, crop safety. Conditions: in vivo, 3 weeks.
Description: as §11, §12, §13

The next series deals with Maize. Briefly: Post-emergence test, crop safety. Conditions: in vivo, 3 weeks.
Description: as §11, §12, §13

Another series has as its system Wheat. The experiment in a line: Post-emergence test, crop safety. The settings on record: in vivo, 3 weeks.
Description: as §11, §12, §13

For a further series, the system named is Monochoria vaginalis. The experiment in a line: Activity assay of compositions, post-emergence spray of stems and leaves. It counts as in vivo. The settings on record: A 3 g a.i./ha, fresh weight inhibition, 21 days after treatment. As for the experimental part:
as §10, §2, §3, §4, §5, §6, §7, §8, §9

Regarding `CC(C)C12CCC(C)(O1)C(OCc1c(F)cccc1Br)C2` (stereo not shown), the “Control effect of B applied alone in a corresponding dose (%)” value in the series on Lindernia procumbens (B 7.5 g a.i./ha) amounted to 42.8%; with Lindernia procumbens (B 15 g a.i./ha), 60.7%.
As to `COCCOC(=O)c1nc(-c2ccc(C(F)(F)F)c(OC)c2F)nc(N)c1OC` [Compound 74], the “Control effect of A applied alone in a corresponding dose (%)” value is 58.0% in the series with Euphorbia helioscopia; 37.7% in the series with Lindernia procumbens (A 3 g a.i./ha, fresh weight inhibition, 21 days after treatment); 62.3% in the series with Veronica [2]; 66.4% with Monochoria vaginalis. Moreover, the “activity level of plant damage (growth control rate), Veronica” value in the series on Veronica [1] came to 9. Also, the “activity level of plant damage (growth control rate), Paddy rice” value in the series with Paddy rice is given as 0. Moreover, in the series on Radish, the “activity level of plant damage (growth control rate), Radish” value turned out to be 0. For the same compound, the “activity level of plant damage (growth control rate), Chinese cabbage” value in the series with Chinese cabbage is on record as 0. In the series with Oilseed rape, the “activity level of plant damage (growth control rate), Oilseed rape” value stood at 0. In addition, the “activity level of plant damage (growth control rate), Maize” value in the series with Maize turned out to be 0. Also, the “activity level of plant damage (growth control rate), Wheat” value with Wheat is 0.
